# Source: US7494821B2, “Fluorescein based sensors for tracking nitric oxide in live cells” (Massachusetts Institute of Technology, priority 2005, dated 2009)
# Columns and labels:
# [1] = Quantum yield; format: physicochemical
# Description: Quantum yield may be obtained by comparison of the integrated area of the corrected emission spectrum of the sample with that of a reference solution. A preferred reference solution is a solution of fluorescein in 0.1 N NaOH, quantum efficiency 0.95. The concentration of the reference is adjusted to match the absorbance of the test sample. The quantum yields may be calculated using the following equation.
# Upon addition of excess NO, a 499 nm peak in the UV-vis spectrum of Cu(FL5) in pH 7.0 buffered solution red-shifted back to the λmax characteristic of FL5 or the synthetic FL5−NO compound (504 nm), which differs from the band formed in the reaction of FL5 with 1 equivalent of Cu(I) added as [Cu(CH3CN)4](BF4) (506 nm). […] In addition, the spectrum of the NO reaction solution closely resembled that of the monoanionic fluorescein formed by lowering the pH from 7.0 to 5.0. […] These values are in the range previously reported for N-nitrosamines. The presence of two separate chemical shifts might arise from different isomers in solution, the Δδ of 2.29 being similar to that of previously reported of N-nitrosamines. […] Lastly, FL5−NO is brighter than FL5 or Cu(FL5), the respective quantum yields being ΦFL-NO=0.58±0.02 and ΦFL=0.077±0.002.
# [2] = Stability of nitrosated ligand at pH 7.0; format: physicochemical
# Description: High resolution MS of FL5-^14NO and FL-^15NO were also obtained, showing m/z=600.0729 for FL5-^14NO and 601.0736 for FL5-^15NO, corresponding to [FL5+NO−H+Cl]^− (calcd. m/z 600.0729 and 601.0700).
# [3] = tested on: SK-N-SH human neuroblastoma cells; test: Detection of NO produced by cNOS in SK-N-SH cells (fluorescence imaging); format: cell-based; conditions: estradiol-stimulated neuroblastoma cells
# Description: FIG. 7 illustrates Cu(FL5) detection of NO produced by cNOS. (a) NO detection in SK-N-SH cells by Cu(FL5). Left to right: 25 min incubation of Cu(FL5) (1 μM) and 5, 10, 15, 25 min after co-treatment of Cu(FL5) (1 μM) and 17β-estradiol (100 nM). Images were taken with a Nikon Eclipse TS100 microscope after removing the DMEM media and washing the cells with PBS. Top: fluorescence images; bottom: phase contrast images. (b) Fluorescence intensity (F(t)/FCu(FL5)) from a was plotted against incubation time. (c) NO production with or without of L-NNA. Right: NO detection in cells after 10 min co-incubation of Cu(FL5) (1 μM) and 17β-estradiol (100 nM). Left: NO detection in cells pre-treated with L-NNA for 1 h before addition of Cu(FL5) and 17β-estradiol.
# We investigated the ability of Cu(FL5) to detect NO produced in SK-N-SH human neuroblastoma cells under physiological conditions, since constitutive NO synthase (“cNOS”) in this cell line can be activated by estrogen to produce NO. Estrogen administration leads to an increase in the cytosolic Ca(II) concentration that alters the structure of calmodulin, which in turn activates cNOS. The NO-dependent fluorescence response, monitored after simultaneous administration of 17β-estradiol (100 nM) and Cu(FL5) (1 μM) to the cells, was completed within 5 min with a 4.0±0.6-fold increase in fluorescence (FIGS. 5a and b). […] As another control, HeLa cells were co-treated with 17β-estradiol (100 nM) and Cu(FL5) (1 μM).
# Raw 264.7, SK-N-SH, and HeLa cells were purchased from the American Type Culture Collection (ATCC). All three cell lines were maintained in Dulbecco's modified Eagles' media (DMEM) (GibcoBRL) containing 10% (v/v) heat-inactivated fetal bovine serum (FBS) (HyClone), 1 mM sodium pyruvate (Sigma), 100 units/ml penicillin, 100 μg/ml streptomycin (Invitrogen), and 0.1 mM nonessential amino acid solution for minimal essential medium (Sigma). All cells were grown at 37° C. in a humidified atmosphere of 10% CO2. A nitrite assay was performed with Griess reagents (Promega) on Raw 264.7 cells grown in DMEM free of phenol red. Calcium sensor fluo-4 AM was purchased from Invitrogen. MTT [3-(4,5-dimethylthiazol-2-yl)-2,5-diphenyltetrazolium bromide] (Sigma-Aldrich) assay was described in Supplementary information. The expression of iNOS in Raw 264.7 cells was analyzed by Western blot on the extracts of cells stimulated by LPS and INF-γ. The protein was silenced by short hairpin RNA-induced RNAi and the resulting cell lines were used in fluorescence imaging by Cu(FL5).
# [4] = Fluorescence response to NO in buffered aqueous solution
# Description: FIG. 5 depicts the fluorescence response of Cu(FL5) to NO. Fluorescence emission spectra (λex=503 nm) of a deoxygenated 1 μM solution of Cu(FL5) in buffered solution (50 mM PIPES, pH 7.0, 100 mM KCl) before (dashed line), immediately, 1, 2 and 5 min after (solid lines) admission of 1300 equiv of NO (g) at 37° C.
# The fluorescence of a 1 μM FL5 solution was diminished by 18±3% upon introduction of an equimolar quantity of CuCl2 at 37° C. Addition of excess NO to a buffered aqueous Cu(FL5) solution led to an immediate 11.2±1.5-fold increase in fluorescence (FIG. 5). […] The lower detection limit for NO is 5 nM.
# A commercially available NO probe, DAF-2 (o-diaminofluorescein), was used for comparison with Cu(FL5). The fluorescence of DAF-2 is unchanged in the presence of NO and the absence of O2 over a period of 1 h.
# As depicted in FIG. 4, NO detection by Cu(FL5) occurs, formally, by nitric oxide-induced reduction of Cu(II) to Cu(I), forming NO^+, which nitrosates the ligand with concomitant dissociation from copper and fluorescence turn-on. The mechanism of turn-on emission of Cu(FL5) by NO was investigated by EPR, UV-vis, NMR and fluorescence spectroscopy and by liquid chromatography-mass spectrometry (LC-MS, low resolution MS).
molecule,measurement,setting,value
"Cc1ccc2cccc(N(Cc3c(O)ccc4c(-c5ccccc5C(=O)O)c5cc(Cl)c(=O)cc-5oc34)N=O)c2n1 [FL5−NO, 2-{2-chloro-6-hydroxy-5-[((2-methylquinolin-8-yl)(nitroso)amino)-methyl]-3-oxo-3H-xanthen-9-yl}-benzoic acid]",quantum yield Φ,[1],0.58±0.02
same,stability,[2],stable for several days
"CC(=O)Oc1ccc2c(c1)Oc1cc(OC(C)=O)ccc1C21OC(=O)c2cc(N)c(N)cc21 [DAF-2 DA, o-diaminofluorescein diacetate, reference compound]",fluorescence increase of treated cells 30 min after activation of cNOS,[3],only a slight fluorescence increase
"o-diaminofluorescein [DAF-2, reference compound]",fluorescence in the presence of NO when O2 is present,[4],turn-on fluorescence
same,fluorescence in the presence of NO and the absence of O2,[4]; over a period of 1 h,unchanged
